Source: the supplement of paper PMC10307832

What was measured:
Experiment in all cases: relative viability (nuclei count vs DMSO), 5 days (fraction); higher = more cells survive
NVP-TAE684 + Olaparib = compound: COc1cc(N2CCC(N3CCN(C)CC3)CC2)ccc1Nc1ncc(Cl)c(Nc2ccccc2S(=O)(=O)C(C)C)n1 [NVP-TAE684] + O=C(c1cc(Cc2n[nH]c(=O)c3ccccc23)ccc1F)N1CCN(C(=O)C2CC2)CC1 [Olaparib] (partner 8 µM)
Procedure, shortened: (§1)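 Lung cancer cell lines in 1536-well plates were dosed by pin tool the day after seeding, either with one drug alone or with a fixed anchor-drug dose plus five library-drug doses (not always all listed) in √10 steps. After 5 days, cells were fixed and their nuclei stained in one step (final 0.05% Triton X-100, 1% formaldehyde, 1 ug/ml Hoechst), then counted on 4× images. Relative viability is the nuclei count in treated wells divided by that in vehicle wells. Values are medians of duplicate plates.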

Vandetanib + AZD7762 = compound: COc1cc2/c(=N/c3ccc(Br)cc3F)nc[nH]c2cc1OCC1CCN(C)CC1 [Vandetanib] + NC(=O)Nc1cc(-c2cccc(F)c2)sc1C(=O)N[C@H]1CCCNC1 [AZD7762] (partner 0.2 µM)
Procedure, shortened: as §1

Vandetanib + Luminespib = compound: COc1cc2/c(=N/c3ccc(Br)cc3F)nc[nH]c2cc1OCC1CCN(C)CC1 [Vandetanib] + CCNC(=O)c1noc(-c2cc(C(C)C)c(O)cc2O)c1-c1ccc(CN2CCOCC2)cc1 [Luminespib] (partner 0.01 µM)
Procedure, shortened: as §1

CUDC-101 + Decitabine = compound: C#Cc1cccc(Nc2ncnc3cc(OC)c(OCCCCCCC(=O)NO)cc23)c1 [CUDC-101] + Nc1ncn([C@H]2C[C@H](O)[C@@H](CO)O2)c(=O)n1 [Decitabine] (partner 2 µM)
Procedure, shortened: as §1

| Cell Line | relative viability (NVP-TAE684 + Olaparib; first compound 0.2 µM) | relative viability (NVP-TAE684 + Olaparib; first compound 0.6325 µM) | relative viability (NVP-TAE684 + Olaparib; first compound 2 µM) | relative viability (Vandetanib + AZD7762; first compound 0.02 µM) | relative viability (Vandetanib + AZD7762; first compound 0.06325 µM) | relative viability (Vandetanib + AZD7762; first compound 0.2 µM) | relative viability (Vandetanib + AZD7762; first compound 0.6325 µM) | relative viability (Vandetanib + AZD7762; first compound 2 µM) | relative viability (Vandetanib + Luminespib; first compound 0.02 µM) | relative viability (Vandetanib + Luminespib; first compound 0.06325 µM) | relative viability (Vandetanib + Luminespib; first compound 0.2 µM) | relative viability (Vandetanib + Luminespib; first compound 0.6325 µM) | relative viability (Vandetanib + Luminespib; first compound 2 µM) | relative viability (CUDC-101 + Decitabine; first compound 0.01 µM) | relative viability (CUDC-101 + Decitabine; first compound 0.03162 µM) | relative viability (CUDC-101 + Decitabine; first compound 0.3162 µM) | relative viability (CUDC-101 + Decitabine; first compound 1 µM) | relative viability (CUDC-101 + Decitabine; first compound 0.1 µM) |
| --- | --- | --- | --- | --- | --- | --- | --- | --- | --- | --- | --- | --- | --- | --- | --- | --- | --- | --- |
| H3255 | 0.539 | 0.532 | 0.407 | 0.898 | 0.812 | 0.824 | 0.636 | 0.377 | 0.982 | 0.795 | 0.829 | 0.728 | 0.501 | 0.643 | 0.549 | 0.227 | 0.15 | – |
| EMC-BAC-2 | 0.506 | 0.447 | 0.35 | 1.08 | 1.08 | 1.12 | 1.11 | 0.973 | 1.15 | 1.11 | 0.216 | 1.27 | 1.07 | 1.09 | 0.925 | 0.952 | 0.654 | 0.948 |
| NCI-H2170 | 0.583 | 0.58 | 0.518 | 0.822 | 0.8 | 0.893 | 0.781 | 0.835 | 0.715 | 0.606 | 0.689 | 0.616 | 0.823 | 0.416 | 0.514 | 0.444 | 0.391 | 0.485 |
| HCC-827 | 0.697 | 0.585 | 0.668 | 0.211 | 0.204 | 0.165 | 0.126 | 0.124 | 0.897 | 0.589 | 0.57 | 0.183 | 0.147 | 0.309 | 0.248 | 0.149 | 0.155 | 0.177 |
| ChaGo-K-1 | 0.422 | 0.418 | 0.345 | 0.878 | 0.886 | 0.893 | 0.816 | 0.896 | 0.633 | 0.593 | 0.616 | 0.59 | 0.507 | 0.558 | 0.47 | 0.505 | 0.492 | 0.555 |
| LXF-289 | 0.931 | 1.08 | 0.487 | 1.07 | 1.08 | 1.04 | 1.1 | 1.01 | 0.626 | 0.627 | 0.744 | 0.718 | 0.624 | 0.396 | 0.418 | 0.367 | 0.301 | 0.358 |
| NCI-H2342 | 0.419 | 0.427 | 0.3 | 0.483 | 0.479 | 0.707 | 0.537 | 0.365 | 0.757 | 0.71 | 0.716 | 0.754 | 0.651 | 0.737 | 0.718 | 0.777 | 0.709 | 0.739 |
| HOP-62 | 0.291 | 0.33 | 0.811 | 0.661 | 0.536 | 0.577 | 0.412 | 0.485 | 0.884 | 0.886 | 0.909 | 0.823 | 0.848 | 0.288 | 0.238 | 0.22 | 0.229 | 0.224 |
| LCLC-103H | 0.794 | 0.783 | 0.726 | 0.755 | 0.783 | 0.758 | 0.772 | 0.82 | 0.922 | 0.979 | 0.906 | 0.916 | 0.912 | 0.692 | 0.695 | 0.657 | 0.633 | 0.722 |
| LOU-NH91 | 0.888 | – | 0.657 | 0.759 | 0.765 | 0.678 | 0.718 | 0.755 | 0.33 | 0.306 | 0.294 | 0.369 | 0.32 | 0.804 | 0.706 | 0.807 | 0.711 | 0.76 |
| NCI-H1915 | 0.295 | 0.281 | 0.228 | 0.696 | 0.664 | 0.693 | 0.612 | 0.719 | 0.744 | 0.808 | 0.766 | 0.766 | 0.733 | 0.262 | 0.267 | 0.248 | 0.23 | 0.28 |
| NCI-H1395 | 0.463 | 0.422 | 0.384 | 0.404 | 0.399 | 0.427 | 0.418 | 0.434 | 0.715 | 0.539 | 0.729 | 0.6 | 0.879 | 0.794 | 0.756 | 0.709 | 0.66 | 0.773 |
| NCI-H1734 | 0.668 | 0.665 | 0.461 | 0.554 | 0.511 | 0.557 | 0.517 | 0.545 | 0.205 | 0.204 | 0.135 | 0.187 | 0.229 | 0.514 | 0.487 | 0.471 | 0.389 | 0.497 |
| NCI-H2405 | 0.923 | 0.825 | 0.481 | 0.703 | 0.651 | 0.674 | 0.698 | 0.571 | 0.736 | 0.539 | 0.776 | 0.642 | 0.55 | 0.853 | 0.705 | 0.762 | 0.643 | 0.776 |
| NCI-H2087 | 0.646 | 0.598 | 0.503 | 1.38 | 1.23 | 1.54 | 1.4 | 1.49 | 0.183 | 0.197 | 0.132 | 0.179 | 0.255 | 0.245 | 0.313 | 0.251 | 0.237 | 0.256 |
| NCI-H1793 | 1.01 | 0.841 | 0.508 | 0.514 | 0.409 | 0.331 | 0.286 | 0.397 | 0.189 | 0.14 | 0.159 | 0.209 | 0.166 | 0.388 | 0.493 | 0.431 | 0.435 | 0.467 |
| NCI-H2085 | 0.819 | 0.754 | 0.714 | 0.941 | 0.944 | 0.951 | 0.857 | 0.946 | 0.451 | 0.384 | 0.269 | 0.478 | 0.398 | 0.642 | 0.552 | 0.568 | 0.551 | 0.634 |
